Test results as given in patent US12344610B2, “APOL1 inhibitors and methods of use” (Maze Therapeutics, Inc., priority 2022, dated 2025).

Tests used:
Type in all cases: cell-based
[1] = target: T1, APOL1 G2 (Homo sapiens, UniProt O14791, DEL388-389); assay: APOL1-mediated calcium transport (calcium influx) assay, HEK T-REx/GCaMP6f/APOL1 G2 K6.3 cells, FLIPR TETRA; conditions: prevention of calcium influx; geometric mean of at least 2 assay runs; † = average of a technical replicate from a single assay run
T1 construct: expressed in transfected cells; host or cells: HEK293 T-REx clonal line stably expressing GCaMP6f (HEK T-REx/GCaMP6f/APOL1 G2 K6.3), doxycycline induced
T1 sequence (O14791 with tags, fused parts or gaps DEL388-389): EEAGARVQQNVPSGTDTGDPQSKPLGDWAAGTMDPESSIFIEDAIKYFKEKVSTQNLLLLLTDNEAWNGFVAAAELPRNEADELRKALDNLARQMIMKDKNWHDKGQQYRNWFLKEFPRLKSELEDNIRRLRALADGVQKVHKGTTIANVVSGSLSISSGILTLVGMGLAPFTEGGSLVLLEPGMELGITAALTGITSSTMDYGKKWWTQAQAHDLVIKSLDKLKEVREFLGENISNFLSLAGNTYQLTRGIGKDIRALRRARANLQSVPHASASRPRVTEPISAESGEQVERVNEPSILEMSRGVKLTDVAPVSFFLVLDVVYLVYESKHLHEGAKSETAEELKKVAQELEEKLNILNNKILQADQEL
In short: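 A HEK293 T-REx clone stably expressing GCaMP6f had APOL1 G2 induced with doxycycline (20 ng/mL solution added) for 6 h. Cells were then washed into Ca2+-free Tyrode's buffer (pH 7.4) and preincubated with compounds (duplicate 8-point) for 10 min at room temperature. Ca2+ injection to 5 mM final produced FLIPR GCaMP fluorescence, giving AC50 for influx inhibition (geometric mean, ≥2 runs).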

[2] = tested on: HEK293 clonal cell line overexpressing APOL1 G1; assay: APOL1 G1 HEK293 cell rescue assay (Example B3); conditions: Homo sapiens, HEK293, HEK293 clonal line overexpressing APOL1 G1; geometric mean of at least 2 runs; † = single run; ¥ = concentration at 50% rescue estimated (no sigmoidal curve)
In short: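 Rescue of cell death caused by APOL1 G1 overexpression was measured in a clonal HEK293 line. Compounds were tested in duplicate on one plate, and EC50s were geometric means across at least two runs on different days. Some values are estimated 50%-rescue concentrations where curve fitting failed.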

[3] = tested on: HEK293 cells overexpressing APOL1 G2; assay: APOL1 G2 HEK293 cell rescue assay (reversal of cell death caused by overexpression of APOL1); conditions: Homo sapiens, HEK293, HEK293 overexpressing APOL1 G2; geometric mean of at least 2 assay runs; † = single assay run
In short: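 Each compound tested in duplicate wells on one plate per run, with values usually the geometric mean across at least two runs on different days, occasionally from one run only. Read-out: concentration giving half-maximal rescue of APOL1 G2 overexpression-induced death of HEK293 cells.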

Row | SMILES | AC50 [1] | EC50 [2] | EC50 [3]
1 | CC(COc1ccc(C2(S(C)(=O)=O)COC2)cc1)N1CCC2(CC1)C(=O)Nc1ccc(C#N)cc12 (stereo not drawn) [Compound 262, 1′-{1-[4-(3-methanesulfonyloxetan-3-yl)phenoxy]propan-2-yl}-2-oxo-1,2-dihydrospiro[indole-3,4′-piperidine]-5-carbonitrile] | 2390 nM | 1780 nM | 299 nM
2 | CN(C)c1ncc(OCCN2CCC3(CC2)C(=O)Nc2ccc(Cl)cc23)cn1 [Compound 303, 5-chloro-1′-(2-{[2-(dimethylamino)pyrimidin-5-yl]oxy}ethyl)-1,2-dihydrospiro[indole-3,4′-piperidin]-2-one] | 822 nM | 351 nM | 156 nM
3 | O=C1Nc2ccc(Cl)cc2C12CCN(CCOc1cnc(N3CC4(C3)CS(=O)(=O)C4)nc1)CC2 [Compound 304, 6-[5-(2-{5-chloro-2-oxo-1,2-dihydrospiro[indole-3,4′-piperidin]-1′-yl}ethoxy)pyrimidin-2-yl]-2λ^6-thia-6-azaspiro[3.3]heptane-2,2-dione] | 1010 nM | 286 nM | 134 nM
4 | CC1(O)CC(N2C(=O)CCc3cc(OCCN4CCC5(CC4)C(=O)Nc4ccc(Cl)cc45)cnc32)C1 (stereo not drawn) [Compound 315, 5-chloro-1′-(2-{[8-(3-hydroxy-3-methylcyclobutyl)-7-oxo-5,6,7,8-tetrahydro-1,8-naphthyridin-3-yl]oxy}ethyl)-1,2-dihydrospiro[indole-3,4′-piperidin]-2-one] | 330 nM | 86 nM | 25.7 nM
5 | O=C1CCc2cc(OCCN3CCC4(CC3)C(=O)Nc3ccc(C(F)F)cc34)cnc2N1C1CC(CO)C1 (stereo not drawn) [Compound 316, 5-(difluoromethyl)-1′-[2-({8-[3-(hydroxymethyl)cyclobutyl]-7-oxo-5,6,7,8-tetrahydro-1,8-naphthyridin-3-yl}oxy)ethyl]-1,2-dihydrospiro[indole-3,4′-piperidin]-2-one] | 1150 nM | 99.4 nM | 32.7 nM
6 | CC1(O)CC(CN2C(=O)CCc3cc(OCCN4CCC5(CC4)C(=O)Nc4ccc(C(F)F)cc45)cnc32)C1 (stereo not drawn) [Compound 320, 5-(difluoromethyl)-1′-[2-({8-[(3-hydroxy-3-methylcyclobutyl)methyl]-7-oxo-5,6,7,8-tetrahydro-1,8-naphthyridin-3-yl}oxy)ethyl]-1,2-dihydrospiro[indole-3,4′-piperidin]-2-one] | 787 nM | 53.9 nM | 22.1 nM
7 | [2H]C([2H])([2H])N1C(=O)C2(CCN(CCOc3ccc(C4CCN(S(C)(=O)=O)CC4)cc3)CC2)c2cc(Cl)ccc21 [Compound 412, 5-chloro-1′-{2-[4-(1-methanesulfonylpiperidin-4-yl)phenoxy]ethyl}-1-(^2H3)methyl-1,2-dihydrospiro[indole-3,4′-piperidin]-2-one] | 2900 nM | 70.7 nM | 45.3 nM
8 | [2H]C([2H])([2H])N1C(=O)C2(CCN(CCOc3ccc(S(C)(=O)=NC)c(C(F)(F)F)c3)CC2)c2cc(Cl)ccc21 (stereo not drawn) [Compound 413, 5-chloro-1-(^2H3)methyl-1′-(2-{4-[methyl(methylimino)oxo-λ^6-sulfanyl]-3-(trifluoromethyl)phenoxy)ethyl)-1,2-dihydrospiro[indole-3,4′-piperidin]-2-one] | 251 nM | 208 nM | 60.3 nM
9 | [2H]C([2H])([2H])N1C(=O)C2(CCN(CCOc3ccc(C4(S(=O)(=O)C(C)C)COC4)cc3)CC2)c2cc(Cl)ccc21 [Compound 414, 5-chloro-1-(^2H3)methyl-1′-(2-{4-[3-(propane-2-sulfonyl)oxetan-3-yl]phenoxy}ethyl)-1,2-dihydrospiro[indole-3,4′-piperidin]-2-one] | 347 nM | 110 nM | 36.7 nM
10 | [2H]C([2H])([2H])N1C(=O)C2(CCN(CCOc3ccc(C4(S(C)(=O)=O)CCC4)cc3)CC2)c2cc(Cl)ccc21 [Compound 415, 5-chloro-1′-{2-[4-(1-methanesulfonylcyclobutyl)phenoxy]ethyl}-1-(^2H3)methyl-1,2-dihydrospiro[indole-3,4′-piperidin]-2-one] | 319 nM | 69.2 nM | 20.3 nM
11 | [2H]C([2H])([2H])N1C(=O)C2(CCN(CCOc3ccc4c(c3)CN(C)C4=O)CC2)c2cc(Cl)ccc21 [Compound 416, 5-chloro-1-(^2H3)methyl-1′-{2-[(2-methyl-1-oxo-2,3-dihydro-1H-isoindol-5-yl)oxy]ethyl}-1,2-dihydrospiro[indole-3,4′-piperidin]-2-one] | 449 nM | 382 nM | 169 nM
12 | [2H]C([2H])([2H])N1C(=O)C2(CCN(CCOc3cnc4c(c3)CCC(=O)N4CC(C)(C)O)CC2)c2cc(Cl)ccc21 [Compound 417, 5-chloro-1′-(2-{[8-(2-hydroxy-2-methylpropyl)-7-oxo-5,6,7,8-tetrahydro-1,8-naphthyridin-3-yl]oxy}ethyl)-1-(^2H3)methyl-1,2-dihydrospiro[indole-3,4′-piperidin]-2-one] | 343 nM | 104 nM | 49.2 nM
13 | [2H]C([2H])([2H])N1C(=O)C2(CCN(CCOc3ccc(S(C)(=O)=O)cc3)CC2)c2cc(Cl)ccc21 [Compound 418] | 309 nM | 215 nM | 78.5 nM
14 | [2H]C([2H])([2H])N1C(=O)C2(CCN(CCOc3cnc4c(c3)CCC(=O)N4[C@H]3C[C@@](C)(O)C3)CC2)c2cc(Cl)ccc21 [Compound 419, 5-chloro-1-(^2H3)methyl-1′-[2-({7-oxo-8-[(1r,3s)-3-hydroxy-3-methylcyclobutyl]-5,6,7,8-tetrahydro-1,8-naphthyridin-3-yl}oxy)ethyl]-1,2-dihydrospiro[indole-3,4′-piperidin]-2-one] | 383 nM | 108 nM | 30.9 nM
15 | [2H]C([2H])([2H])N1C(=O)C2(CCN(CCOc3cnc(C4(CO)CC4)nc3)CC2)c2cc(Cl)ccc21 [Compound 420, 5-chloro-1′-[2-({2-[1-(hydroxymethyl)cyclopropyl]pyrimidin-5-yl}oxy)ethyl]-1-(^2H3)methyl-1,2-dihydrospiro[indole-3,4′-piperidin]-2-one] | 892 nM | 144 nM | 64.7 nM
16 | [2H]C([2H])([2H])N1C(=O)C2(CCN(CCOc3cc(F)c4c(c3)CCNS4(=O)=O)CC2)c2cc(Cl)ccc21 [Compound 421, 6-{2-[5-chloro-1-(^2H3)methyl-2-oxo-1,2-dihydrospiro[indole-3,4′-piperidin]-1′-yl]ethoxy}-8-fluoro-3,4-dihydro-2H-1λ^6,2-benzothiazine-1,1-dione] | 564 nM | 83.3 nM | 34.5 nM
17 | [2H]C([2H])([2H])N1C(=O)C2(CCN(CCOc3cnc4c(c3)CCC(=O)N4[C@H]3C[C@@H](O)C3)CC2)c2cc(Cl)ccc21 [Compound 423, 5-chloro-1-(^2H3)methyl-1′-[2-({7-oxo-8-[(cis)-3-hydroxycyclobutyl]-5,6,7,8-tetrahydro-1,8-naphthyridin-3-yl}oxy)ethyl]-1,2-dihydrospiro[indole-3,4′-piperidin]-2-one] | 284 nM | 116 nM | 59.3 nM
